# Measurements taken from ChEMBL document CHEMBL3400127, “Synthesis of 6-[(11)C]methyl-m-tyrosine ([(11)C]6MemTyr) for dopamine synthesis imaging in living brain using PET” (Bioorg Med Chem, 2015).
# Assays:
# Conditions in all cases: in vivo; call rule not given here
# [1] = Drug uptake in cynomolgus monkey striatum after 10 mins by PET imaging analysis; format: ADME, tissue-based, Macaca fascicularis
# [2] = Drug uptake in cynomolgus monkey cerebellum after 5 mins by PET imaging analysis; format: ADME, Macaca fascicularis
# [3] = Drug uptake in cynomolgus monkey cortex after 60 to 90 mins by PET imaging analysis; format: ADME, tissue-based, Macaca fascicularis
# [4] = Half life in cynomolgus monkey cerebellum by PET imaging analysis; format: ADME, tissue-based, Macaca fascicularis
# [5] = Drug uptake in cynomolgus monkey striatum after 60 to 90 mins by PET imaging analysis; format: ADME, tissue-based, Macaca fascicularis
# [6] = Drug uptake in cynomolgus monkey cerebellum after 60 to 90 mins by PET imaging analysis; format: ADME, tissue-based, Macaca fascicularis
# [7] = Drug uptake in cynomolgus monkey striatum after 40 to 60 mins by PET imaging analysis; format: ADME, tissue-based, Macaca fascicularis
# Brain = experiment: Drug uptake in cynomolgus monkey brain assessed as dopamine synthesis after 60 to 90 mins by PET imaging analysis in presence of carbidopa; format: ADME, tissue-based, Macaca fascicularis
# [8] = Drug uptake in cynomolgus monkey cerebellum after 40 to 60 mins by PET imaging analysis; format: ADME, tissue-based, Macaca fascicularis
SMILES,Drug uptake [1],Drug uptake [2],Drug uptake [3],t1/2 [4] [min],Drug uptake [5],Drug uptake [6],Drug uptake [7],Drug uptake (Brain),Drug uptake [8]
[11CH3]c1ccc(O)cc1C[C@H](N)C(=O)O,Active,Active,Active,30,Active,Active,Active,Active,Active
N[C@@H](Cc1cc(O)c(O)cc1[18F])C(=O)O [FLUORODOPA F 18],Active,Active,Active,50,Active,Active,Active,Active,Active
